Measurements taken from patent publication US11865181B2, “Peptidic materials that traffic efficiently to the cell cytosol and nucleus” (Yale University, priority 2017, dated 2024).
Where two headings read alike, the source gives them in different places. Positions of bridges follow the written chain, without caps; N, C: chain ends. Non-standard residues stand in square brackets, D forms with d. Residues, ends and D or L forms follow the SMILES beside them. R8 = C=CCCCCCC[C@@](C)(N)C(=O)O; S5 = C=CCCC[C@](C)(N)C(=O)O

Columns and labels:
[1] = test system: hDM2-overexpressing SJSA-1 cells; assay type: cell-based
Experimental: SJSA-1 cells were seeded into a 96-well plate (2,000 cells/well) and incubated overnight at 37° C. After washing twice in PBS, cells are incubated with peptide or Nutlin-3a (Santa Cruz Biotechnology, Santa Cruz, Calif.) in Opti-MEM (Invitrogen, Carlsbad, Calif.) for 24 hours. Cell viability was then assayed using CellTiter-Glo (Promega, Madison, Wis.) according to the manufacturer's protocol. Luminescence measurements were taken on a SpectraMax M5 plate reader (Molecular Devices, Sunnyvale, Calif.).
Previously it has been shown that the efficacy with which hydrocarbon-stapled peptides reach the cytosol correlates with their efficacy in cell-based assays (LaRochelle et al., J. Am. Chem. Soc., 2015, 137, 2536-2541). To examine whether the biological activity of these penta-arg peptides correlated with how efficiently they accessed the cytosol, cell viability assays were performed using N-acetylated versions of the peptides and hDM2-overexpressing SJSA-1 cells (FIG. 4 and FIG. 5).

[2] = test system: hDM2-overexpressing SJSA-1 cells; details: literature values (Bernal et al. 2007; 2010); read-out: previously reported EC50, SJSA-1 cell viability; cited from earlier work
HeLa cells = details: cited from earlier work

EC50 ([1]; 24 h) [µM]	Compound	other results
4.8	CC(=O)N[C@@H](CC(C)C)C(=O)N[C@@H](CO)C(=O)N[C@@H](CCC(N)=O)C(=O)N[C@@H](CCC(=O)O)C(=O)N[C@H](C(=O)N[C@@H](C)C(=O)N[C@]1(C)CCCCCCC=CCCC[C@@](C)(C(=O)N[C@@H](CCCNC(=N)N)C(=O)N[C@@H](CCCNC(=N)N)C(N)=O)NC(=O)[C@H](CC(C)C)NC(=O)[C@H](CCCNC(=N)N)NC(=O)[C@H](CCCNC(=N)N)NC(=O)[C@H](Cc2c[nH]c3ccccc23)NC(=O)[C@H](CC(C)C)NC(=O)[C@H](CCCNC(=N)N)NC1=O)[C@@H](C)O [BP1.6F19A^Ac, Ac-LSQETAR8RLWRRLS5RR-NH2] (Ac-LSQETA[R8]RLWRRL[S5]RR-NH2; staple 7-14)	
1.9	CC(=O)N[C@@H](CC(C)C)C(=O)N[C@@H](CO)C(=O)N[C@@H](CCC(N)=O)C(=O)N[C@@H](CCC(=O)O)C(=O)N[C@H](C(=O)N[C@@H](Cc1ccccc1)C(=O)N[C@]1(C)CCCCCCC=CCCC[C@@](C)(C(=O)N[C@@H](CCCNC(=N)N)C(=O)N[C@@H](CCCNC(=N)N)C(N)=O)NC(=O)[C@H](CC(C)C)NC(=O)[C@H](CCCNC(=N)N)NC(=O)[C@H](CCCNC(=N)N)NC(=O)[C@H](Cc2c[nH]c3ccccc23)NC(=O)[C@H](CC(C)C)NC(=O)[C@H](CCCNC(=N)N)NC1=O)[C@@H](C)O [BP1.6^Ac, Ac-LSQETFR8RLWRRLS5RR-NH2] (Ac-LSQETF[R8]RLWRRL[S5]RR-NH2; staple 7-14)	
	COc1ccc(C2=N[C@@H](c3ccc(Cl)cc3)[C@@H](c3ccc(Cl)cc3)N2C(=O)N2CCNC(=O)C2)c(OC(C)C)c1 [Nutlin-3a, reference compound]	EC50 ([1]; 24 hours in Opti-MEM, N-acetylated peptides, read-out: EC50, decrease in SJSA-1 cell viability): 22.8 µM; EC50 [2]: ~7 µM
7.7	CC(=O)N[C@@H](CC(C)C)C(=O)N[C@@H](CCCNC(=N)N)C(=O)N[C@@H](CCCNC(=N)N)C(=O)N[C@@H](CCC(=O)O)C(=O)N[C@H](C(=O)N[C@@H](Cc1ccccc1)C(=O)N[C@]1(C)CCCCCCC=CCCC[C@@](C)(C(=O)N[C@@H](CCCNC(=N)N)C(=O)N[C@@H](CC(N)=O)C(N)=O)NC(=O)[C@H](CC(C)C)NC(=O)[C@H](CCCNC(=N)N)NC(=O)[C@H](CCCCN)NC(=O)[C@H](Cc2c[nH]c3ccccc23)NC(=O)[C@H](CCCNC(=N)N)NC(=O)[C@H](CC(=O)O)NC1=O)[C@@H](C)O [BP1.5^Ac, Ac-LRRETFR8DRWKRLS5RN-NH2] (Ac-LRRETF[R8]DRWKRL[S5]RN-NH2; staple 7-14)	
7.7	CC(=O)N[C@@H](CCCNC(=N)N)C(=O)N[C@@H](CO)C(=O)N[C@@H](CCC(N)=O)C(=O)N[C@@H](CCC(=O)O)C(=O)N[C@@H](CCCNC(=N)N)C(=O)N[C@@H](Cc1ccccc1)C(=O)N[C@]1(C)CCCCCCC=CCCC[C@@](C)(C(=O)N[C@@H](CCCNC(=N)N)C(=O)N[C@@H](CCCNC(=N)N)C(N)=O)NC(=O)[C@H](CC(C)C)NC(=O)[C@H](CCCNC(=N)N)NC(=O)[C@H](CCCCN)NC(=O)[C@H](Cc2c[nH]c3ccccc23)NC(=O)[C@H](CC(C)C)NC(=O)[C@H](CC(=O)O)NC1=O [BP1.4^Ac, Ac-RSQERFR8DLWKRLS5RR-NH2] (Ac-RSQERF[R8]DLWKRL[S5]RR-NH2; staple 7-14)	
1.9	CC(=O)N[C@@H](CCCNC(=N)N)C(=O)N[C@@H](CO)C(=O)N[C@@H](CCC(N)=O)C(=O)N[C@@H](CCCNC(=N)N)C(=O)N[C@@H](CCCNC(=N)N)C(=O)N[C@@H](Cc1ccccc1)C(=O)N[C@]1(C)CCCCCCC=CCCC[C@@](C)(C(=O)N[C@@H](CCC(=O)O)C(=O)N[C@@H](CC(N)=O)C(N)=O)NC(=O)[C@H](CC(C)C)NC(=O)[C@H](CC(C)C)NC(=O)[C@H](CCCNC(=N)N)NC(=O)[C@H](Cc2c[nH]c3ccccc23)NC(=O)[C@H](CC(=O)O)NC(=O)[C@H](CCCNC(=N)N)NC1=O [BP1.2^Ac, Ac-RSQRRFR8RDWRLLS5EN-NH2] (Ac-RSQRRF[R8]RDWRLL[S5]EN-NH2; staple 7-14)	
	Ac-LSQETFR8DLWKLLS5EN-NH2 (Ac-LSQETF[R8]DLWKLL[S5]EN-NH2; staple 7-14) [SAH-p53-4, reference compound]	effect on SJSA-1 cell viability (in words) ([1]; concentrations as high as 60 μM, 24 hours): no decrease in viability; ability to breach the plasma membrane as judged by flow cytometry (HeLa cells): fails to effectively breach the plasma membrane
